US4272437A, “Antibacterial agents, and 4-thio azetidinone intermediates” (priority 1979, dated 1981)
In brackets after ≈: the same amount, converted by molar mass. Like-named read-outs stand apart in the source and are kept apart here.

Legend:
Str. pneumoniae A-9585 = experiment: MIC, tube dilution, Streptococcus pneumoniae A9585; type: cell-based; details: Streptococcus pneumoniae, A9585, Str. pneumoniae A9585; overnight 37° C., Nutrient Broth; read-out: Minimum Inhibitory Concentration (M.I.C.)
Source text: (§1) Representative compounds of the present invention were subjected to in vitro antibiotic screening against a variety of microorganisms.

Str. pyogenes A-9604 = experiment: MIC, tube dilution, Streptococcus pyogenes A9604; type: cell-based; details: Streptococcus pyogenes, A9604, Str. pyogenes A9604; overnight 37° C., Nutrient Broth; read-out: Minimum Inhibitory Concentration (M.I.C.)
Source text: as §1

Staph. aureus A-9537 = experiment: MIC, tube dilution, Staphylococcus aureus A9537; type: cell-based; details: Staphylococcus aureus, A9537, Staph. aureus A9537; overnight 37° C., Nutrient Broth; read-out: Minimum Inhibitory Concentration (M.I.C.)
Source text: as §1

[1] = system: Staph. aureus A-9537 and 50% serum; experiment: MIC, tube dilution, Staph. aureus A9537 + 50% serum; type: cell-based, Staphylococcus aureus; details: Staphylococcus aureus, overnight 37° C., read-out: Minimum Inhibitory Concentration (M.I.C.)
Source text: as §1

[2] = system: Staph. aureus (Pen-Res) A-9606; experiment: MIC, tube dilution, Staphylococcus aureus A9606 (Pen-Res); type: cell-based; details: Staphylococcus aureus, overnight 37° C.
Source text: as §1

[3] = system: Staph. aureus (Meth-Res) A-15097; experiment: MIC, tube dilution, Staphylococcus aureus A15097 (Meth-Res); type: cell-based; details: Staphylococcus aureus, read-out: Minimum Inhibitory Concentration (M.I.C.), Staph. aureus A15097 (Meth-Res); overnight 37° C.
Source text: as §1

Str. faecalis A-20688 = experiment: MIC, tube dilution, Streptococcus faecalis A20688; type: cell-based; details: Enterococcus faecalis, A20688, Str. faecalis A20688; overnight 37° C.; read-out: Minimum Inhibitory Concentration (M.I.C.)
Source text: as §1

E. coli A-15119 = experiment: MIC, tube dilution, Escherichia coli A15119; type: cell-based; details: Escherichia coli, A15119, E. coli A15119; overnight 37° C.; read-out: Minimum Inhibitory Concentration (M.I.C.)
Source text: as §1

E. coli A-20341-1 = experiment: MIC, tube dilution, Escherichia coli A20341-1; type: cell-based; details: Escherichia coli, A203411; E. coli A20341-1; overnight 37° C.; read-out: Minimum Inhibitory Concentration (M.I.C.)
Source text: as §1

K. pneumoniae A-15130 = experiment: MIC, tube dilution, Klebsiella pneumoniae A15130; type: cell-based; details: Klebsiella pneumoniae, A15130, K. pneumoniae A15130; overnight 37° C.; read-out: Minimum Inhibitory Concentration (M.I.C.)
Source text: as §1

[4] = system: Klebsiella species A20468; experiment: MIC, tube dilution, Klebsiella species A20468; type: cell-based; details: Klebsiella species (K. pneumoniae) A20468; overnight 37° C.; read-out: Minimum Inhibitory Concentration (M.I.C.)
Source text: as §1

Pr. mirabilis A-9900 = experiment: MIC, tube dilution, Proteus mirabilis A9900; type: cell-based; details: Proteus mirabilis, A9900, Proteus mirabilis A9900; overnight 37° C.; read-out: Minimum Inhibitory Concentration (M.I.C.)
Source text: as §1

Pr. vulgaris A-9716 = experiment: MIC, tube dilution, Proteus vulgaris / Proteus mirabilis A9716; type: cell-based, Proteus vulgaris (name changed to Proteus mirabilis); details: Proteus vulgaris, overnight 37° C.
Source text: as §1

Pr. morganii A-15153 = experiment: MIC, tube dilution, Proteus morganii A15153; type: cell-based; details: Morganella morganii, A15153, Proteus morganii A15153; overnight 37° C.; read-out: Minimum Inhibitory Concentration (M.I.C.)
Source text: as §1

Ser. marcescens A-20019 = experiment: MIC, tube dilution, Serratia marcescens A20019; type: cell-based; details: Serratia marcescens, A20019, Serratia marcescens A20019; overnight 37° C.; read-out: Minimum Inhibitory Concentration (M.I.C.)
Source text: as §1

Ent. cloacae A-9659 = experiment: MIC, tube dilution, Enterobacter cloacae A9659; type: cell-based; details: Enterobacter cloacae, A9659, Enterobacter cloacae A9659; overnight 37° C.; read-out: Minimum Inhibitory Concentration (M.I.C.)
Source text: as §1

Ent. cloacae A-9656 = experiment: MIC, tube dilution, Enterobacter cloacae A9656; type: cell-based; details: overnight 37° C., read-out: Minimum Inhibitory Concentration (M.I.C.)
Source text: as §1

Ps. aeruginosa A-9843A = experiment: MIC, tube dilution, Pseudomonas aeruginosa A9843A; type: cell-based; details: Pseudomonas aeruginosa, A9843A, read-out: Minimum Inhibitory Concentration (M.I.C.), Pseudomonas aeruginosa A9843A; overnight 37° C.
Source text: as §1

Ps. aeruginosa A-21213 = experiment: MIC, tube dilution, Pseudomonas aeruginosa A21213; type: cell-based; details: Pseudomonas aeruginosa A21213; overnight 37° C.; read-out: Minimum Inhibitory Concentration (M.I.C.)
Source text: as §1

Proteus rettgeri A21203 = experiment: MIC, tube dilution, Proteus rettgeri A21203; type: cell-based; details: Providencia rettgeri, overnight 37° C., read-out: Minimum Inhibitory Concentration (M.I.C.)
Source text: as §1

[5] = read-out: Minimum Inhibitory Concentration (M.I.C.), Staph. aureus A9606 (Pen-Res)
[6] = A9716, read-out: Minimum Inhibitory Concentration (M.I.C.), Proteus vulgaris / Proteus mirabilis A9716
[7] = A9716, Proteus vulgaris / Proteus mirabilis A9716, read-out: Minimum Inhibitory Concentration (M.I.C.)
[8] = Enterobacter cloacae, A9656, Enterobacter cloacae A9656
[9] = A21203, Proteus rettgeri A21203
[10] = Staph. aureus A9606 (Pen-Res), read-out: Minimum Inhibitory Concentration (M.I.C.)

SMILES | MIC (Str. pneumoniae A-9585) [µg/mL] | MIC (Str. pyogenes A-9604) [µg/mL] | MIC (Staph. aureus A-9537) [µg/mL] | MIC [1] [µg/mL] | MIC [2, 5] [µg/mL] | MIC [3] [µg/mL] | MIC (Str. faecalis A-20688) [µg/mL] | MIC (E. coli A-15119) [µg/mL] | MIC (E. coli A-20341-1) [µg/mL] | MIC (K. pneumoniae A-15130) [µg/mL] | MIC [4] [µg/mL] | MIC (Pr. mirabilis A-9900) [µg/mL] | MIC (Pr. vulgaris A-9716; [6]) [µg/mL] | MIC (Pr. morganii A-15153) [µg/mL] | MIC (Ser. marcescens A-20019) [µg/mL] | MIC (Ent. cloacae A-9659) [µg/mL] | MIC (Ent. cloacae A-9656; Enterobacter cloacae A9656) [µg/mL] | MIC (Ps. aeruginosa A-9843A) [µg/mL] | MIC (Ps. aeruginosa A-21213) [µg/mL] | MIC (Proteus rettgeri A21203; Proteus rettgeri A21203) [µg/mL] | also measured
O=C([O-])C1=C(Cc2ccco2)S[C@@H]2CC(=O)N12.[Na+] [Preparation 18, Sodium 2-(2-Furylmethyl)penem-3-carboxylate] | 0.06 | 0.25 | 0.5 | > 63 | 1 | 16 | 63 | 2 | > 125 | 32 | > 125 | 2 | 2 | 8 | 32 | 16 | 32 | > 125 | > 125 | 4 | 
O=C(O)C1=C(Cc2cscn2)SC2CC(=O)N12 (centres unmarked) [Example 18, 2-(4'-Thiazolyl)methylpenem-3-carboxylic Acid] | 125 (≈ 466 µM) | > 125 | 125 (≈ 466 µM) | > 63 | > 125 | > 125 | > 125 | > 125 | > 125 | > 125 | 125 (≈ 466 µM) | > 125 | 125 (≈ 466 µM) | 125 (≈ 466 µM) | > 125 | > 125 | > 125 | 125 (≈ 466 µM) | 125 (≈ 466 µM) | 125 (≈ 466 µM) | 
CSC(SC)C1=C(C(=O)O)N2C(=O)CC2S1 (centres unmarked) [Preparation 26, Sodium 2-(Dimethyldithiomethyl)penem-3-carboxylate] | 2 | 4 | 4 | > 63 | 125 | > 125 | > 125 | 32 | > 125 | > 125 | > 125 | 32 |  | 63 | 63 | 63 |  | 125 | 125 |  | MIC (Pr. vulgaris A-9716; [7]): 32 µg/mL; MIC (Ent. cloacae A-9656; [8]): 63 µg/mL; MIC (Proteus rettgeri A21203; [9]): 32 µg/mL
Cn1cc(C2=C(C(=O)O)N3C(=O)CC3S2)cn1 (centres unmarked) [Example 15] | 0.13 (≈ 0.517 µM) | 0.5 (≈ 1.99 µM) | 1 (≈ 3.98 µM) | > 63 |  | 125 (≈ 497 µM) | 63 (≈ 251 µM) | 16 (≈ 63.7 µM) | > 125 | 125 (≈ 497 µM) | > 125 | 16 (≈ 63.7 µM) |  | 63 (≈ 251 µM) | 63 (≈ 251 µM) | 125 (≈ 497 µM) |  | 125 (≈ 497 µM) | 125 (≈ 497 µM) |  | MIC [2, 10]: 32 µg/mL (≈ 127 µM); MIC (Pr. vulgaris A-9716; [7]): 16 µg/mL (≈ 63.7 µM); MIC (Ent. cloacae A-9656; [8]): 63 µg/mL (≈ 251 µM); MIC (Proteus rettgeri A21203; [9]): 16 µg/mL (≈ 63.7 µM)
Nc1ccccc1CC1=C(C(=O)O)N2C(=O)CC2S1 (centres unmarked) [Example 45, Sodium 2-(2'-Aminophenyl)methylpenem-3-carboxylate] | 0.5 | 1 | 1 | 63 |  | 125 | 125 | 125 | 125 | 125 | 125 | 32 |  | 125 | 125 | 125 | 125 | 125 | 125 |  | MIC [2, 10]: 4 µg/mL; MIC (Pr. vulgaris A-9716; [7]): 63 µg/mL; MIC (Proteus rettgeri A21203; [9]): 63 µg/mL
CCOP(=O)(CCC1=C(C(=O)O)N2C(=O)CC2S1)OCC (centres unmarked) [Preparation 25, 2'-(2'-Diethylphosphono-1'-ethyl)penem-3-carboxylic Acid] | 125 (≈ 373 µM) | > 125 | 1 (≈ 2.98 µM) | 8 | 32 (≈ 95.4 µM) | 4 (≈ 11.9 µM) | 125 (≈ 373 µM) | 8 (≈ 23.9 µM) | 2 (≈ 5.96 µM) | 125 (≈ 373 µM) | 4 (≈ 11.9 µM) | 8 (≈ 23.9 µM) | 63 (≈ 188 µM) | 63 (≈ 188 µM) | 63 (≈ 188 µM) | 16 (≈ 47.7 µM) | 16 (≈ 47.7 µM) | 125 (≈ 373 µM) | > 125 | 32 (≈ 95.4 µM) | 
O=C(O)C1=C(C(F)(F)F)SC2CC(=O)N12 (centres unmarked) [Example 17, Sodium 2-Trifluoromethylpenem-3-carboxylate] | > 8 | > 8 | > 8 | > 63 | > 125 | > 125 | > 125 | 125 | > 125 | > 125 | > 125 | > 125 | > 125 | > 125 | > 125 | > 125 | > 125 | 125 | 125 | 125 | 
